According to patent US12303845B2, “Method for crystallization of active pharmaceutical ingredients” (Nanoform Finland Oyj, priority 2023, dated 2025):

How the values were obtained:
[1] = Permeability measurements (μFlux); format: in vitro ADME; details: composition of the disclosure vs bulk ezetimibe, PAMPA membrane
Procedure: A μFlux instrument connected to the Rainbow instrument (Pion Inc UK Ltd, Forest Row, UK) was used to determine the passive permeability of API from different formulations. The suspensions were loaded to the donor chamber containing 10 mL of SGF (0.025 M HCl pH 1.6) and incubated for 15 min. Thereafter, the content of the donor chamber was converted to FaSSIF medium pH 6.5 by addition of 10 mL of FaSSIF concentrate media and stirring rate of 150 rpm. The receiver compartment contained 20 mL of PION acceptor buffer pH 7.4 with stirring rate of 150 rpm. The permeability was assessed across a gastrointestinal PAMPA membrane (Pion Inc UK Ltd, Forest Row, UK). The suspensions were loaded either at either 40 μg/mL for Ezetimibe or 30 μg/mL for Apalutamide using suspensions prepared at concentration of 5 mg/mL in 1 wt.-% PVPVA suspension vehicle. The temperature was set to 37° C. throughout the measurement. Incubation time was about 24 h. UV-Vis spectra were recorded at 30 s intervals at a wavelength of 293-320 nm using the Pion Rainbow Dynamic with either 10 mm tips for Ezetimibe or 5 mm tips for Apalutamide. API concentrations were calculated using second derivative to avoid interference of undissolved floating particles based on a standard curve (stock solution 5 mg/mL in ethanol). […]

[2] = Crystallization of amorphous nanosized API in aqueous polymer solution, polymorph/crystallinity by XRD; format: physicochemical; parameters: key to Polymorph: bulk = same as the API before conversion to amorphous nanoparticles
Procedure: XRPD measurements were carried out using the Malvern PANalytical Empyrean X-ray diffractometer equipped with a Cu Kα (1.54 Å) source, MultiCore optics and a solid-state PIXcel3D detector. By using Kapton tape the samples were attached onto aluminum or polycrystalline silicon sample holders. Dried slurries were measured without further sample preparation under Kapton tape and suspensions were filtered, dried, and filters were attached with double sided tape. The samples were measured in the reflection geometry in a spinning measurement stage. The measurement range was 5-40 (°2θ). The step size and time per step values were varied depending on the counts per second obtained.
Determination of crystallization of API nanoparticles was evaluated via kinetic study of suspension. Accordingly, XRD measurement was done for suspension in different time points.
Amorphous API nanoparticles (budesonide, ezetimibe, ceritinib, and apalutamide) were added as dry powders to aqueous polymer solutions. The mixtures were either • (i) mixed with a magnetic stirrer and ultrasonicated until API was completely surrounded by water (wetted). The stirring was continued for 16-24 h at ambient temperature or • (ii) blended with a metal spatula and allowed to stay at room temperature for 18-24 h.
The suspensions formed were analyzed after 18-24 h. SEM and XRD samples were prepared as described above.

[3] = Stability tests of solid material (SEM, XRD, HPLC); format: physicochemical; details: materials prepared according to the disclosure; up to T30; crystallinity confirmed by XRD
Procedure: Solid material was weighted in separate vials (approx. 150 mg of material in each) and transferred to stability chambers. Three conditions were applied: ambient conditions (material in closed vial at RT), 25° C./65% RH and 40° C./75% RH. Material was analyzed at T0 as freshly prepared, T7 ([…]), T14 ([…]) and T30 (30 d) after the initiation of stability studies. SEM, XRD and dissolution/permeability studies were used to evaluate the crystallinity, particle size/morphology and performance of the material.

[4] = SEM of crystallized suspensions and dried products (crystal size grade, particle size); format: physicochemical; parameters: key: 5 = nanocrystals; 1 = large crystals
Procedure: SEM images were captured using the Zeiss Sigma 300 VP SEM instruments. Samples were dispersed into water and filtered with 0.1 μm filter. Filters were dried, transferred to SEM sample holders, and coated with a 5 nm thick layer of platinum. Amorphous API nanoparticles (budesonide, ezetimibe, ceritinib, and apalutamide) were added as dry powders to aqueous polymer solutions. The mixtures were either • (i) mixed with a magnetic stirrer and ultrasonicated until API was completely surrounded by water (wetted). The stirring was continued for 16-24 h at ambient temperature or • (ii) blended with a metal spatula and allowed to stay at room temperature for 18-24 h. The suspensions formed were analyzed after 18-24 h. SEM and XRD samples were prepared as described above. Suspension comprising nanosized APIs prepared as shown above were dried in a vacuum desiccator overnight. The solid materials were grounded to produce powders. The powders were analyzed on XRD and SEM. The powders comprising nanosized APIs were used in the stability, permeability, and dissolution tests as described above.

[5] = HPMC 1 wt.-%, SLS 0.2 wt.-%, mAPI 25 mg/g
[6] = HPMC 1 wt.-%, no SLS, mAPI 25 mg/g
[7] = HPMC 2.5 wt.-%, SLS 0.2 wt.-%, mAPI 25 mg/g
[8] = HPMC 2.5 wt.-%, no SLS, mAPI 25 mg/g
[9] = HPMC 5 wt.-%, SLS 0.2 wt.-%, mAPI 25 mg/g
[10] = HPMC 5 wt.-%, no SLS, mAPI 25 mg/g
[11] = PVP K30 1 wt.-%, no SLS, mAPI 25 mg/g
[12] = PVP K30 2.5 wt.-%, no SLS, mAPI 25 mg/g
[13] = PVP K30 5 wt.-%, no SLS, mAPI 25 mg/g
[14] = PVPVA 1 wt.-%, SLS 0.2 wt.-%, mAPI 25 mg/g
[15] = PVPVA 1 wt.-%, no SLS, mAPI 25 mg/g polymer solution
[16] = PVPVA 2.5 wt.-%, SLS 0.2 wt.-%, mAPI 25 mg/g
[17] = PVPVA 2.5 wt.-%, no SLS, mAPI 25 mg/g
[18] = PVPVA 5 wt.-%, SLS 0.2 wt.-%, mAPI 25 mg/g
[19] = PVPVA 5 wt.-%, no SLS, mAPI 25 mg/g
[20] = PVPVA 15 wt.-%, no SLS, mAPI 150 mg/g
[21] = PVPVA 15 wt.-%, no SLS, mAPI 300 mg/g
[22] = PVPVA 20 wt.-%, no SLS, mAPI 100 mg/g
[23] = PVPVA 20 wt.-%, no SLS, mAPI 200 mg/g
[24] = PVPVA 20 wt.-%, no SLS, mAPI 400 mg/g
[25] = PVPVA 25 wt.-%, no SLS, mAPI 125 mg/g
[26] = PVPVA 25 wt.-%, no SLS, mAPI 250 mg/g
[27] = Poloxamer 407 1 wt.-%, no SLS, mAPI 25 mg/g
[28] = Poloxamer 407 2.5 wt.-%, no SLS, mAPI 25 mg/g
[29] = Poloxamer 407 5 wt.-%, no SLS, mAPI 25 mg/g

permeability versus bulk API [1]: significantly better
Polymorph [2, 5]: bulk
Polymorph [2, 6]: hydrate
Polymorph [2, 7]: amorphous
Polymorph [2, 8]: hydrate
Polymorph [2, 9]: amorphous
Polymorph [2, 10]: hydrate
Polymorph [2, 11]: bulk
Polymorph [2, 12]: bulk
Polymorph [2, 13]: bulk
Polymorph [2, 14]: bulk
Polymorph [2, 15]: bulk
Polymorph [2, 16]: bulk
Polymorph [2, 17]: bulk
Polymorph [2, 18]: hydrate
Polymorph [2, 19]: bulk
Polymorph [2, 20]: hydrate
Polymorph [2, 21]: hydrate
Polymorph [2, 22]: hydrate
Polymorph [2, 23]: hydrate
Polymorph [2, 24]: hydrate
Polymorph [2, 25]: hydrate
Polymorph [2, 26]: hydrate
Polymorph [2, 27]: bulk
Polymorph [2, 28]: bulk
Polymorph [2, 29]: bulk
time from contacting until crystal formation is observed in XRD diffractograms ([2]; suspension in 20 wt.-% aq. PVPVA, API:polymer ratio 1:1): > 9 h
Stability of nanocrystalline material over the stability study [3]: stable over the whole stability study
Grade (SEM, visual inspection) [4, 5]: 2
Grade (SEM, visual inspection) [4, 6]: 2
Grade (SEM, visual inspection) [4, 7]: 2
Grade (SEM, visual inspection) [4, 8]: 2
Grade (SEM, visual inspection) [4, 9]: 2
Grade (SEM, visual inspection) [4, 10]: 2
Grade (SEM, visual inspection) [4, 11]: 3
Grade (SEM, visual inspection) [4, 12]: 3
Grade (SEM, visual inspection) [4, 13]: 3
Grade (SEM, visual inspection) [4, 14]: 2
Grade (SEM, visual inspection) [4, 15]: 3
Grade (SEM, visual inspection) [4, 16]: 4
Grade (SEM, visual inspection) [4, 17]: 2
Grade (SEM, visual inspection) [4, 18]: 5
Grade (SEM, visual inspection) [4, 19]: 2
Grade (SEM, visual inspection) [4, 20]: 5
Grade (SEM, visual inspection) [4, 21]: 5
Grade (SEM, visual inspection) [4, 22]: 5
Grade (SEM, visual inspection) [4, 23]: 5
Grade (SEM, visual inspection) [4, 24]: 5
Grade (SEM, visual inspection) [4, 25]: 5
Grade (SEM, visual inspection) [4, 26]: 5
Grade (SEM, visual inspection) [4, 27]: 1
Grade (SEM, visual inspection) [4, 28]: 1
Grade (SEM, visual inspection) [4, 29]: 1
SMILES: O=C1[C@H](CC[C@H](O)c2ccc(F)cc2)[C@@H](c2ccc(O)cc2)N1c1ccc(F)cc1 [Eze, ezetimibe]
